Test results as given in paper PMC12693416, “From Lipid Regulation to Neuroprotection: Multitarget (Benzo)thiazine Derivatives as Promising Leads” (Molecules, 2025).
Like-named read-outs stand apart in the source and are kept apart here.

Key:
[1] = system: mouse liver microsomal lipid peroxidation; test: Inhibition of mouse liver microsomal lipid peroxidation (LP); details: for IC50: read-out: LP IC50 Value, 45 min incubation
[2] = Radical scavenging of DPPH; details: DPPH 200 μM, 30 min incubation
Description: Compounds, dissolved in absolute methanol, at concentrations of 25–400 μM, were added to an equal volume of a methanolic solution of DPPH (final concentration 200 μM) at room temperature (22 ± 2 °C).

[3] = Iron chelation (ferrozine assay); details: for % of Fe(II) Chelation (at 100 μM): 100 μM compound, Fe2+ 20 μM
Description: […] The reaction was initiated with the addition of a 100 μM aqueous ferrozine solution, which chelates iron ions, resulting in an increased maximum absorbance at 562 nm. After incubation at 37 °C for 10 min, the mixture’s absorbance is measured at 562/700 nm. Each value is expressed as the mean of 3 tests per sample [46].

[4] = target: soybean lipoxygenase (LOX-3); test: Soybean lipoxygenase (LOX-3) inhibition; assay type: biochemical; details: after 5 min of incubation; sodium linoleate 100 μM, pH 9.0
Description: Lipoxygenase (LOX) inhibitory activity was determined using soybean lipoxygenase (250 U/mL) and sodium linoleate (100 μM) as substrate, in Tris–HCl buffer pH 9.0.

hyperlipidaemic mice = test: Tyloxapol (Triton WR 1339)-induced hyperlipidemia, plasma lipid parameters; assay type: in vivo; details: i.p. 84 μmol/kg; for change in vivo at 84 µmol/kg / inhibition in vivo at 84 µmol/kg: Mus musculus, ip, 24 h
Description: An aqueous solution of Triton WR 1339 was given i.p. to mice (400 mg/kg of body weight) and one hour later the test compounds (84 μmol/kg of body weight), dissolved in saline or saline only, were administered i.p. After 24 h, blood was taken from the aorta/heart and used for the determination of plasma total cholesterol (TC), triglyceride (TG) levels, and high-density lipoprotein (HDL) levels, using commercially available kits (Biosis Cholesterol Enzymatic/PAP, Biosis Triglycerides GPO/PAP, and Biosis HDL Phosphovolframic, Biosis, Athens Greece). Levels of plasma lipids were determined in duplicate while values presented are the mean from 8 animals (per compound). The levels of low-density lipoprotein (LDL) are calculated according to the equation: LDL (mg/dL) = 3/4 * (TC-HDL).

[5] = system: carrageenan-induced mouse paw edema; test: Carrageenan-induced mouse paw edema; assay type: in vivo, C57BL/6 mice; details: ip, 3.5 h, i.p. 0.30 mmol/kg, female C57BL/6, 3.5 h after carrageenan, read-out: % Edema (decrease of carrageenan-induced paw edema vs control)
Description: For the in vivo anti-inflammatory activity, C57BL/6 mice were injected with 0.025 mL carrageenan (2% w/v solution in saline) i.d. into the right hind paw, the left paw serving as control. The test compounds dissolved in saline (300 μmol/kg) were given i.p. right after the carrageenan injection, and 3.5 h later the produced edema was estimated as paw weight increase. Results are expressed as percentage of reduction in paw-edema and are the mean of 6 animals (per compound).

[6] = target: T1, acetylcholinesterase from eel (Electrophorus electricus, UniProt O42275); test: Acetylcholinesterase (AChE) inhibition (Ellman); assay type: biochemical; details: read-out: AChE Inhibition (%), 300 μM compound
T1 construct: purchased Sigma
T1 sequence (O42275 24-633): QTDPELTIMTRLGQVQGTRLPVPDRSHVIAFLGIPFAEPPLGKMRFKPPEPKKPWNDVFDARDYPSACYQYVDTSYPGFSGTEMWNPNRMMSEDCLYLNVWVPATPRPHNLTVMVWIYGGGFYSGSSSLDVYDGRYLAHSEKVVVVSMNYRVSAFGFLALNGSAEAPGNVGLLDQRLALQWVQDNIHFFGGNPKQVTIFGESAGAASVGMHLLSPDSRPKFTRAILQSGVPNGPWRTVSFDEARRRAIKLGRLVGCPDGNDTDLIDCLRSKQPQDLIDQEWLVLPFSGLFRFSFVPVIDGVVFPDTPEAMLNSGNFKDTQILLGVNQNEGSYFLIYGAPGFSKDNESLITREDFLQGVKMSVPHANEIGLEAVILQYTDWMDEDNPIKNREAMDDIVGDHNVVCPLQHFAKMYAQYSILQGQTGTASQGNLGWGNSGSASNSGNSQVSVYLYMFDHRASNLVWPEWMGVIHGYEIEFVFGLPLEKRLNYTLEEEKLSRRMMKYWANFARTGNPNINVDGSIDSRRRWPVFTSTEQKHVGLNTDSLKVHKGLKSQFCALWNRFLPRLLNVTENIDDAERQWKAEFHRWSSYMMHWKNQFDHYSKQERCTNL
Description: (0.31 mM) in phosphate buffer with pH = 7. The incubation mixture is monitored for 7 min at 37 °C.

[7] = system: plasma of hyperlipidaemic mice; test: Total antioxidant capacity (TAC) of plasma in hyperlipidaemic mice; assay type: in vivo; details: Mus musculus, ip, 24 h, i.p. 84 μmol/kg, read-out: Total Antioxidant Capacity (TAC) Increase (%)
[8] = plasma, vs tyloxapol control, read-out: % HDL Increase
[9] = LDL calculated as 3/4*(TC-HDL), read-out: % LDL Decrease
[10] = plasma, vs tyloxapol control, read-out: % Total Cholesterol (TC) Reduction
[11] = plasma, vs tyloxapol control, read-out: % Triglycerides (TG) Reduction
[12] = ratio calculated, read-out: % HDL/LDL Increase (antiatherogenic index)

Compound	LP % Inhibition at 100 μΜ ([1]; 100 μM compound) [%]	IC50 [2] [µM]	% of Fe(II) Chelation (at 100 μM) [3] [%]	IC50 [1] [µM]	IC50 [4] [µM]	change in vivo at 84 µmol/kg (hyperlipidaemic mice; [8]) [%]	inhibition in vivo at 84 µmol/kg (hyperlipidaemic mice; [9]) [%]	inhibition in vivo at 84 µmol/kg (hyperlipidaemic mice; [10]) [%]	inhibition in vivo at 84 µmol/kg (hyperlipidaemic mice; [11]) [%]	inhibition in vivo at 300 µmol/kg [5] [%]	inhibition at 300 µM [6] [%]	change in vivo at 84 µmol/kg (hyperlipidaemic mice; [12]) [%]	change in vivo at 84 µmol/kg [7] [%]	% of Fe(II) Chelation at 10 μM ([3]; 10 μM compound) [%]	% HDL, value marked footnote 2: decrease percentage (hyperlipidaemic mice; plasma, HDL decrease, not increase)
Cc1cc(C(C)(C)C)c(O)c(C(C)(C)C)c1 [BHT, butylated hydroxytoluene, reference compound]	0	31	0	–	–	–	–	–	–	–	–	–	–	–	–
COc1cc(/C=C/C(=O)N2CCSC(c3ccc(-c4ccccc4)cc3)C2)ccc1O (stereo not shown) [Compound 1, (E)-1-(2-([1,1′-Biphenyl]-4-yl)thiomorpholino)-3-(4-hydroxy-3-methoxyphenyl)prop-2-en-1-one]	–	166	19	6	68	84	59	40	83	≤ 60	22	–	–	–	–
COc1ccc(/C=C/C(=O)N2CCSC(c3ccc(-c4ccccc4)cc3)C2)cc1OC (stereo not shown) [Compound 2, (E)-1-(2-([1,1′-Biphenyl]-4-yl)thiomorpholino)-3-(3,4-dimethoxyphenyl)prop-2-en-1-one]	–	> 400	18	> 1000	> 300	44	53	30	60	≤ 60	26	122	43	–	–
O=C(c1cc(O)c(O)c(O)c1)N1CCSC(c2ccc(-c3ccccc3)cc2)C1 (stereo not shown) [Compound 3, (2-([1,1′-Biphenyl]-4-yl)thiomorpholino)(3,4,5-trihydroxyphenyl)methanone]	–	31	89	8	4	49	79	51	86	≤ 60	10	–	–	56	–
COc1cc(C(=O)N2CCSC(c3ccc(-c4ccccc4)cc3)C2)cc(OC)c1OC (stereo not shown) [Compound 4]	–	> 400	4	> 500	71	95	5	10	35	44	30	–	87	–	–
CC(C)(C)c1cc(C(=O)N2CCSC(c3ccc(-c4ccccc4)cc3)C2)cc(C(C)(C)C)c1O (stereo not shown) [Compound 5, (2-([1,1′-Biphenyl]-4-yl)thiomorpholino)(3,5-ditertbutyl-4-hydroxyphenyl)methanone]	–	300	0	250	150	–	–	55	50	35	24	–	0	–	–
CC(C)(C)c1cc(/C=C/C(=O)N2CCSC(c3ccc(-c4ccccc4)cc3)C2)cc(C(C)(C)C)c1O (stereo not shown) [Compound 6, (E)-1-(2-([1.1′-Biphenyl]-4-yl)thiomorpholino)-3-(3,5-ditertbutyl-4-hydroxyphenyl)prop-2-en-1-one]	–	288	0	> 500	252	–	49	36	65	33	~45	43	–	–	23 **^,2%
CC(C)Cc1ccc(C(C)C(=O)N2CCSC(c3ccc(-c4ccccc4)cc3)C2)cc1 (stereo not shown) [Compound 7, 1-(2-([1,1′-Biphenyl]-4-yl)thiomorpholino)-2-(4-isobutylphenyl)propan-1-one]	–	> 400	3	299	22	–	–	27	70	27	27	–	0	–	–
O=C(/C=C/c1ccccc1)N1CCSC(c2ccc(-c3ccccc3)cc2)C1 (stereo not shown) [Compound 8, (E)-1-(2-([1,1′-Biphenyl]-4-yl)thiomorpholino)-3-phenylprop-2-en-1-one]	–	> 400	5	> 1000	> 200	9	57	45	53	46	19	91	104	–	–
